The values that follow come from ChEMBL document CHEMBL1134716, “Synthesis and evaluation of GGPP geometric isomers: divergent substrate specificities of FTase and GGTase I” (Bioorg Med Chem Lett, 2001).

This assay addresses Geranylgeranyl transferase type I (Homo sapiens, UniProt P49354+P53609). The assay is described as follows: Inhibition of recombinant mammalian Geranylgeranyl transferase type I expressed in baculovirus.

The term IC50 denotes the concentration needed to halve the response being measured. Turning to `CC(C)=CCC/C(C)=C/CC/C(C)=C/CC/C(C)=C\COP(=O)(O)OP(=O)(O)O`, the IC50 was 100 nM.
Next, `CC(C)=CCC/C(C)=C/CC/C(C)=C\CC/C(C)=C/COP(=O)(O)OP(=O)(O)O`: 340 nM.
